≈ marks a conversion by molar mass, not a printed value.
Assay: physchem
Conditions: 25 °C, water

solubility [µg/mL]	Compound
0.01 (≈ 0.0239 µM)	CSc1ccc(-c2nn(Cc3ccccc3)c(=O)cc2-c2ccc(Cl)cc2)cc1 [Compound A, 2-benzyl-5-(4-chlorophenyl)-6-[4-(methylthio)phenyl]-2H-pyridazin-3-one]
0.1 (≈ 0.259 µM)	CC(C)CCC[C@@H](C)[C@H]1CC[C@H]2[C@@H]3CC=C4C[C@@H](O)CC[C@]4(C)[C@H]3CC[C@]12C [cholesterol]
0.9 (≈ 1.87 µM)	O=C(Nc1cccc2c(=O)cc(-c3nnn[nH]3)oc12)c1ccc(OCCCCc2ccccc2)cc1 [pranlukast]

Compound	solubility [µg/mL]
CCCCC(=O)O[C@]1(C(=O)COC(C)=O)CC[C@H]2[C@@H]3CCC4=CC(=O)C=C[C@]4(C)[C@H]3[C@@H](O)C[C@@]21C [prednisolone valerate acetate]	4
